Molecules are shown by their SMILES.

For 38 molecules, IC50 results are on record in US11414384B2, “P300/CBP hat inhibitors” (Constellation Pharmaceuticals, Inc., priority 2018, dated 2022).

Chain of p300 HAT domain (residues 1287-1666) (Q09472 1287-1666): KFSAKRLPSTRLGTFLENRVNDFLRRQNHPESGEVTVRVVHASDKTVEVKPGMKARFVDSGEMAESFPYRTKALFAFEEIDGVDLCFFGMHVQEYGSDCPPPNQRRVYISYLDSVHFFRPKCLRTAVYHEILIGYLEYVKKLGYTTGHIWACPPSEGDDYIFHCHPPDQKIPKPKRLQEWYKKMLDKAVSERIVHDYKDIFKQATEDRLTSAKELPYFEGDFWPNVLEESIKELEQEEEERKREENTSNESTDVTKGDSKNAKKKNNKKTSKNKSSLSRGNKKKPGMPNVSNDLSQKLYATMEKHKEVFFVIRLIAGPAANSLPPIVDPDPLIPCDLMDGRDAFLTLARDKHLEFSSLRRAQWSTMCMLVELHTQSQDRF

One assay addresses p300 HAT domain (residues 1287-1666) (Homo sapiens (Human), UniProt Q09472). Nature of the assay: p300 HAT SPA assay (scintillation proximity assay, acetylation of biotinylated H3(1-21) peptide). In kind it is biochemical. The following applies: P300 HAT SPA IC50, p300 HAT domain; average of at least 2 replicate titrations. A digest of the protocol: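 Scintillation proximity readout of acetylated biotin-H3(1-21) captured on streptavidin plates after 1.5 hr at RT; enzyme was Ni2+/anion-exchange-purified HAT domain in 20 mM Hepes pH 7.5. Inhibitor IC50s calculated from the data.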
For the molecule `COCCn1cc(C(=O)C(NCCc2ccc(Cl)cc2)c2ccccc2)c2ccccc21` (single isomer, unassigned) [127 Isomer 1], the half-inhibitory concentration (IC50) (usually the concentration that inhibits the measured activity by half) is over 60000 nM.

Still in this assay, the particulars now being: p300 HAT domain; average of at least 2 replicate titrations; read-out: P300 HAT SPA IC50.
Take `N#Cc1ccc(CCNC(C(=O)c2c[nH]c3cc(-c4cnn(CCO)c4)ccc23)c2ccccc2)cc1` (single isomer, unassigned) [95 Isomer 1]: the concentration for half-maximal inhibition (IC50) was 816 nM.
For `COCCn1cc(-c2ccc3c(C(=O)C(NCCc4ccc(C#N)cc4)c4ccccc4)c[nH]c3c2)cn1` (single isomer, unassigned) [96 Isomer 1], the concentration for half-maximal inhibition (IC50) stood at 182 nM.
As for `N#Cc1ccc(CCNC(C(=O)c2c[nH]c3cc(-c4cn[nH]c4)ccc23)c2ccccc2)cc1` (single isomer, unassigned) [98 Isomer 1], the 50% inhibitory concentration (IC50) was 493 nM.
Still for that read-out and setting: under `N#Cc1ccc(CCNC(C(=O)c2cnn3cc(-c4cn[nH]c4)ccc23)c2ccccc2)cc1` (single isomer, unassigned) [99 Isomer 1] stands 212 nM.
On to `Cn1cc(-c2ccc3c(C(=O)C(NCCc4ccc(S(N)(=O)=O)cc4)c4ccccc4)cnn3c2)cn1` (single isomer, unassigned) [101 Isomer 1], for which the IC50 worked out at 166 nM.
The same measure, in the same setting: under `CC(CNC(C(=O)c1cnn2cc(-c3cnn(C)c3)ccc12)c1ccccc1)c1ccc(C#N)cc1` (single isomer, unassigned) [102 Isomer 1] stands 1880 nM; under `CC(CNC(C(=O)c1cnn2cc(-c3cnn(C)c3)ccc12)c1ccccc1)c1ccc(C#N)cc1` (single isomer, unassigned) [102 Isomer 2], 239 nM; under `CC(CNC(C(=O)c1cnn2cc(-c3cnn(C)c3)ccc12)c1ccccc1)c1ccc(C#N)cc1` (single isomer, unassigned) [102 Isomer 3], 212 nM.
As to `Cn1cc(-c2ccc3c(C(=O)C(NCCc4ccc(C#N)cc4)c4ccccc4)c[nH]c3c2F)cn1` (single isomer, unassigned) [103 Isomer 1], the concentration for half-maximal inhibition (IC50) was found to be 3410 nM.
`Cn1cc(-c2ccc3c(C(=O)C(NCCc4ccc(Cl)cc4)c4ccccc4)c[nH]c3c2)nn1` (single isomer, unassigned) [104 Isomer 1]: the IC50 is over 5000 nM.
In the case of `Cn1cc(-c2ccc3c(C(=O)C(NCCc4ccc(Cl)cc4)c4ccccc4)c[nH]c3c2)nn1` (single isomer, unassigned) [104 Isomer 2], the IC50 is 388 nM.
For the molecule `O=C(c1c[nH]c2cc(-c3ccccn3)ccc12)C(NCCc1ccc(F)cc1)c1ccccc1` (single isomer, unassigned) [105 Isomer 1], the IC50 was over 30000 nM.
As to `Cn1cnc(-c2ccc3c(C(=O)C(NCCc4ccc(Cl)cc4)c4ccccc4)c[nH]c3c2)c1` (single isomer, unassigned) [106 Isomer 1], the half-inhibitory concentration (IC50) was 755 nM.
On to `Cn1cnc(-c2ccc3c(C(=O)C(NCCc4ccc(Cl)cc4)c4ccccc4)c[nH]c3c2)c1` (single isomer, unassigned) [106 Isomer 2], for which the half-inhibitory concentration (IC50) amounted to 283 nM.
`Cc1nnc(-c2ccc3c(C(=O)C(NCCc4ccc(Cl)cc4)c4ccccc4)c[nH]c3c2)o1` (single isomer, unassigned) [107 Isomer 1]: the IC50 is 1900 nM.
As to `Cc1nnc(-c2ccc3c(C(=O)C(NCCc4ccc(Cl)cc4)c4ccccc4)c[nH]c3c2)o1` (single isomer, unassigned) [107 Isomer 2], the IC50 was determined as 3280 nM.
Turning to `O=C(c1c[nH]c2cc(-c3ccccn3)ccc12)C(NCCc1ccc(Cl)cc1)c1ccccc1` (single isomer, unassigned) [108 Isomer 2], the IC50 was 2640 nM.
For the molecule `Cc1cnc(-c2ccc3c(C(=O)C(NCCc4ccc(Cl)cc4)c4ccccc4)c[nH]c3c2)[nH]1` (single isomer, unassigned) [109 Isomer 1], the IC50 is 2660 nM.
The same measure, in the same setting: for `Cc1ncc(-c2ccc3c(C(=O)C(NCCc4ccc(Cl)cc4)c4ccccc4)c[nH]c3c2)[nH]1` (single isomer, unassigned) [110 Isomer 1] the value was 2010 nM; for `O=C(c1c[nH]c2cc(-c3ccncn3)ccc12)C(NCCc1ccc(Cl)cc1)c1ccccc1` (single isomer, unassigned) [111 Isomer 1], 1150 nM; for `O=C(c1c[nH]c2cc(-c3ccncn3)ccc12)C(NCCc1ccc(Cl)cc1)c1ccccc1` (single isomer, unassigned) [111 Isomer 2], 556 nM.
As to `O=C(c1c[nH]c2cc(-c3cccnn3)ccc12)C(NCCc1ccc(Cl)cc1)c1ccccc1` (single isomer, unassigned) [112 Isomer 1], the IC50 worked out at 2030 nM.
In the case of `Cn1cnc(-c2ccc3c(C(=O)C(NCCc4ccc(C#N)cc4)c4ccccc4)c[nH]c3c2)c1` (single isomer, unassigned) [113 Isomer 1], the IC50 amounted to 1110 nM.
Turning to `Cn1cc(-c2ccc3c(C(=O)C(NCCc4ccc(C#N)cc4)c4ccccc4)c[nH]c3c2)nn1` (single isomer, unassigned) [114 Isomer 1], the half-maximal inhibitory concentration (IC50) turned out to be 558 nM.
With `Cn1cnc(-c2ccc3c(C(=O)C(NCCc4ccc(S(N)(=O)=O)cc4)c4ccccc4)c[nH]c3c2)c1` (single isomer, unassigned) [115 Isomer 1], the IC50 worked out at 1490 nM.
As for `Cn1cc(-c2ccc3c(C(=O)C(NCCc4ccc(S(N)(=O)=O)cc4)c4ccccc4)c[nH]c3c2)nn1` (single isomer, unassigned) [116 Isomer 1], the concentration for half-maximal inhibition (IC50) was over 5000 nM.
On the same count and under the same terms, under `O=C(c1c[nH]c2cc(-n3ccnc3)ccc12)C(NCCc1ccc(F)cc1)c1ccccc1` (single isomer, unassigned) [117 Isomer 2] stands over 30000 nM; under `O=C(c1c[nH]c2cc(-n3cccn3)ccc12)C(NCCc1ccc(F)cc1)c1ccccc1` (single isomer, unassigned) [118 Isomer 1], over 30000 nM.
As to `NS(=O)(=O)c1ccc(CCNC(C(=O)c2c[nH]c3cc(-n4ccnc4)ccc23)c2ccccc2)cc1` (single isomer, unassigned) [119 Isomer 1], the IC50 is over 5000 nM.
For the molecule `CN1CCN(c2ccc3c(C(=O)C(NCCc4ccc(C#N)cc4)c4ccccc4)c[nH]c3n2)CC1` (single isomer, unassigned) [121 Isomer 1], the IC50 was found to be 2200 nM.
In the case of `CN1CCN(c2ccc3c(C(=O)C(NCCc4ccc(C#N)cc4)c4ccccc4)c[nH]c3c2)CC1` (single isomer, unassigned) [122 Isomer 1], the IC50 came out at 325 nM.
On the same count and under the same terms, for `CN1CCN(c2ccc3c(C(=O)C(NCCc4ccc(F)cc4)c4ccccc4)c[nH]c3c2)CC1` (single isomer, unassigned) [123 Isomer 1] the value was 7610 nM; for `CN1CCN(c2ccc3c(C(=O)C(NCCc4ccc(S(N)(=O)=O)cc4)c4ccccc4)c[nH]c3c2)CC1` (single isomer, unassigned) [124 Isomer 1], over 5000 nM.
On the same count and under the same terms, for `N#Cc1ccc(CCNC(C(=O)c2c[nH]c3cc(N4CCCC4)ccc23)c2ccccc2)cc1` (single isomer, unassigned) [125 Isomer 1] the value was over 2000 nM; for `N#Cc1ccc(CCNC(C(=O)c2c[nH]c3cc(N4CCCC4)ccc23)c2ccccc2)cc1` (single isomer, unassigned) [125 Isomer 2], 224 nM; for `CN1CCC(Oc2ccc3c(C(=O)C(NCCc4ccc(C#N)cc4)c4ccccc4)c[nH]c3c2)CC1` (single isomer, unassigned) [126 Isomer 1], 2840 nM.

The assay is the same for the next values; noted with them: read-out: P300 HAT SPA IC50; p300 HAT domain; average of at least 2 replicate titrations.
On to `COCCn1cc(C(=O)C(NCCc2ccc(Cl)cc2)c2ccccc2)c2ccccc21` (single isomer, unassigned) [127 Isomer 2], for which the IC50 is over 60000 nM.
